Experimental data: the NIST ThermoML archive (doi:10.1016/j.jct.2018.08.013)
Where “and” joins values, the source holds several entries; their conditions need not be identical. Equal values may be shown once.

Tests used:
[1] = xn = mol fraction of the nth substance listed; settings: 298 K; 100 kPa; Crystal of intercomponent compound 1; X-ray diffraction; x2 = 0.486
[2] = specific heat capacity at constant pressure; xn = mol fraction of the nth substance listed; settings: 100 kPa, Crystal of intercomponent compound 1, relaxation calorimetry, x2 = 0.486

[Te] [tellurium] + [Ga]
Settings | mass density [kg/m3]
[1] | 5448

[2]
Settings | specific heat capacity
14.14 K | 12.49 J/K/kg
14.15 K | 12.53 J/K/kg
16.16 K | 17.22 J/K/kg
16.18 K | 17.24 J/K/kg
18.17 K | 22.39 J/K/kg and 22.38 J/K/kg
18.18 K | 22.43 J/K/kg
20.18 K | 27.78 J/K/kg
20.19 K | 27.77 J/K/kg
20.2 K | 27.79 J/K/kg
22.21 K | 33.2 J/K/kg
22.22 K | 33.22 J/K/kg
24.22 K | 38.74 J/K/kg
24.23 K | 38.79 J/K/kg
26.24 K | 44.36 J/K/kg and 44.33 J/K/kg and 44.32 J/K/kg
28.25 K | 49.69 J/K/kg
28.26 K | 49.67 J/K/kg
30.27 K | 54.94 J/K/kg
30.29 K | 54.99 J/K/kg
35.31 K | 68.01 J/K/kg
35.32 K | 68.01 J/K/kg
35.33 K | 68.06 J/K/kg
40.35 K | 80.38 J/K/kg
40.36 K | 80.53 J/K/kg and 80.38 J/K/kg
45.39 K | 92.13 J/K/kg
45.41 K | 91.88 J/K/kg
50.41 K | 103.44 J/K/kg
50.43 K | 103.49 J/K/kg
50.46 K | 103.13 J/K/kg
55.45 K | 113.77 J/K/kg
55.46 K | 113.98 J/K/kg
55.5 K | 113.47 J/K/kg
60.48 K | 123.56 J/K/kg
60.5 K | 123.56 J/K/kg
60.52 K | 123.05 J/K/kg
65.51 K | 133.13 J/K/kg
65.54 K | 132.63 J/K/kg
65.55 K | 133.08 J/K/kg
70.55 K | 141.95 J/K/kg
70.56 K | 141.34 J/K/kg
70.6 K | 141.7 J/K/kg
75.58 K | 149.91 J/K/kg
75.59 K | 149.2 J/K/kg
75.64 K | 149.81 J/K/kg
80.61 K | 157.76 J/K/kg
80.63 K | 157.11 J/K/kg
80.67 K | 157.61 J/K/kg
85.63 K | 164.86 J/K/kg
85.64 K | 164.2 J/K/kg
85.72 K | 164.66 J/K/kg
90.68 K | 171.5 J/K/kg and 170.94 J/K/kg
90.75 K | 171.14 J/K/kg
95.71 K | 177.22 J/K/kg and 176.31 J/K/kg
95.78 K | 176.62 J/K/kg
100.78 K | 185.08 J/K/kg
100.82 K | 184.52 J/K/kg
100.86 K | 184.88 J/K/kg
105.73 K | 192.73 J/K/kg
105.87 K | 191.31 J/K/kg and 192.07 J/K/kg
113.71 K | 198.86 J/K/kg
113.79 K | 197.4 J/K/kg
113.83 K | 197.65 J/K/kg
121.68 K | 205.1 J/K/kg
121.71 K | 204.14 J/K/kg
121.77 K | 203.73 J/K/kg
129.62 K | 209.51 J/K/kg
129.64 K | 209.91 J/K/kg
129.7 K | 208.39 J/K/kg
137.55 K | 213.76 J/K/kg
137.59 K | 213.56 J/K/kg
137.61 K | 212.24 J/K/kg
145.48 K | 218.93 J/K/kg
145.53 K | 218.27 J/K/kg
145.54 K | 217.36 J/K/kg
153.41 K | 222.38 J/K/kg
153.42 K | 222.23 J/K/kg
153.44 K | 222.08 J/K/kg
161.35 K | 224.41 J/K/kg and 224.26 J/K/kg
161.36 K | 224.31 J/K/kg
169.28 K | 227.5 J/K/kg and 227.09 J/K/kg
169.3 K | 227.04 J/K/kg
177.2 K | 229.17 J/K/kg and 228.87 J/K/kg
177.22 K | 228.92 J/K/kg
185.1 K | 230.89 J/K/kg
185.14 K | 230.79 J/K/kg
185.15 K | 230.59 J/K/kg
193.03 K | 233.63 J/K/kg
193.06 K | 233.38 J/K/kg
193.08 K | 233.43 J/K/kg
200.95 K | 233.83 J/K/kg
200.99 K | 233.88 J/K/kg
201 K | 233.68 J/K/kg
201.42 K | 236.77 J/K/kg
201.44 K | 236.67 J/K/kg
201.53 K | 234.69 J/K/kg
206.43 K | 237.94 J/K/kg
206.46 K | 237.84 J/K/kg
206.54 K | 236.01 J/K/kg
208.87 K | 236.16 J/K/kg
208.91 K | 236.52 J/K/kg
208.92 K | 236.37 J/K/kg
211.46 K | 238.9 J/K/kg
211.47 K | 238.9 J/K/kg
211.55 K | 236.98 J/K/kg
216.49 K | 239.91 J/K/kg
216.55 K | 238.55 J/K/kg
216.78 K | 238.34 J/K/kg
216.82 K | 238.39 J/K/kg
216.83 K | 238.19 J/K/kg
221.51 K | 241.18 J/K/kg and 241.33 J/K/kg and 241.13 J/K/kg
221.53 K | 241.03 J/K/kg
221.59 K | 239.61 J/K/kg
224.71 K | 241.13 J/K/kg
224.75 K | 241.28 J/K/kg
224.76 K | 240.98 J/K/kg
225.58 K | 241.79 J/K/kg
225.61 K | 241.84 J/K/kg
226.54 K | 242.25 J/K/kg and 242.35 J/K/kg
226.61 K | 240.73 J/K/kg
229.65 K | 241.89 J/K/kg
229.68 K | 241.44 J/K/kg
231.54 K | 243.26 J/K/kg
231.76 K | 241.44 J/K/kg
232.62 K | 240.42 J/K/kg
232.68 K | 239.97 J/K/kg and 240.47 J/K/kg
233.72 K | 242.04 J/K/kg
233.75 K | 241.94 J/K/kg
236.76 K | 242.3 J/K/kg
237.69 K | 243.11 J/K/kg
237.73 K | 242.45 J/K/kg
240.54 K | 241.54 J/K/kg
240.6 K | 241.28 J/K/kg and 241.49 J/K/kg
